Results: patent US8481459B2, “Chemical inhibitors of ethylene biosynthesis” (Academia Sinica, priority 2010, dated 2013)

Experiments:
[1] = system: 5×EBS::LUC reporter (EIN3 binding sequence) in eto1-4; assay: Luciferase activity of 5×EBS::LUC reporter in eto1-4 seedlings; assay type: in vivo, Arabidopsis thaliana; conditions: 10 μM
Method: For live imaging of luciferase activity, plants were first grown in the dark at 22° C. for 3 days, then under exemplary e light for 3 more days before the luciference of seedlings was imaged. Six-day-old seedlings were sprayed with luciferin (2 μM, Biosynth International Inc.) and kept in the dark for 5 min before collecting images by the Xenogen IVIS System (Caliper Life Sciences, Inc.). For quantitative assay of luciferase activity, the etiolated seedlings mentioned above were transferred to exemplary e micro-titer plates (Packard Optiplate-96, Perkin Elmer Inc.) for an additional 3 days under exemplary e light in 0.5×MS solution. The luciferase activity of seedlings was quantitated by use of a microplate reader (CHAMELEON, Hidex Inc.) in the presence of 2 μM luciferin.
To confirm the suppression of the eto1-4 phenotype resulting from disruption of the ethylene response, the following assays were performed. First, luciferase activity was analyzed with a transgenic reporter line harboring 5 copies of a synthetic promoter fusion with a luciferase gene (LUC), 5×EBS::LUC, in the eto1-4 background.

[2] = system: etiolated eto1-4 seedlings; assay: Triple response phenotype / hypocotyl length of etiolated eto1-4 seedlings; assay type: in vivo, Arabidopsis thaliana; conditions: 10 μM; etiolated eto1-4; FIG. 3
Method: All mutants and transgenic plants were derived from the wild-type Arabidopsis thaliana Columbia ecotype (Col-0) and cultivated under a long-day condition (16-h light/8-h dark at 22° C.) under exemplary e light (100-150 μE m^−2 s^−1). A reporter construct, 5×EBS::LUC (a generous gift from Drs. Hai Li and Anna N. Stepanova, Salk Institute, USA), containing 5 copies of EIN3 binding sequence (EBS) fused with luciferase gene (LUC) was transformed to eto1-4 and subsequently used for screening compounds of a chemical library. Ethylene mutants eto1-4, eto2-1, ctr1-1 and the EIN3 overexpression line (35S::EIN3) were described previously (Solano, et al. (1998) Genes Dev 12, 3703-3714). Seeds were sterilized with 30% bleach for 6 min and sown in half-strength Murashige and Skoog (0.5×MS) medium supplemented with 0.8% agar and stratified in the dark at 4° C. for 3-4 days before germination. For analysis of the triple response phenotype, stratified seeds were grown in the dark at 22° C. for 3 days before scoring the phenotype.
A DIVERSet library (ChemBridge Inc.) containing 10,000 small molecules (in DMSO) was used for chemical screening. Three rounds of chemical screenings were carried out in 0.5×MS agar medium containing individual chemicals in each well of 96- and 24-well micro-titer plates. The initial screening was performed by sowing 10 to 15 seeds in the wells of micro-titer plates containing small molecules at 50 μM to score the long-hypocotyl phenotype. For the second and third screenings, we used 25 μM of small molecules selected from the first round of screening to score and confirm the phenotype. The seedling phenotype was scored by use of a digital camera attached to a Zeiss stereomicroscope (SteREO V8), and quantitation of hypocotyl length was performed by use of NIH Image J software. AVG and silver thiosulfate (STS, by mixing silver nitrate and sodium thiosulfate at a 1:4 molar ratio immediately before use) were obtained from Sigma and used as controls to suppress ethylene biosynthesis and perception, respectively. Agar medium was supplemented with 1-aminocyclopropane-1-carboxylic acid (10 μM, Merck) to induce the triple response in etiolated seedlings.
Shortened hypocotyls in etiolated seedlings is one of the triple response phenotypes (Guzman, et al. (1990) Plant Cell 2, 513-523; Wang, et al. (2004) Nature 428, 945-950). Two chemical compounds negating ethylene response, AVG and STS, were included as a control for comparison.

Compound | luciferase activity of 5×EBS::LUC in eto1-4 [1] | ranking in both hypocotyl length and ethylene level assays [2]
silver thiosulfate [STS] | suppressed | 
CC1(C)CC(=O)c2cnc(Nc3ccccc3)nc2C1 [Compound 9028] |  | most effective
CC1CC(=O)c2cnc(Nc3ccccc3)nc2C1 (centres unmarked) [Compound 2305] |  | most effective
CCCCNc1ncc2c(n1)CC(c1ccccc1)CC2=O (centres unmarked) [Compound 2616] |  | most effective
O=C1CC(c2ccccc2Cl)Cc2nc(NC3CCCC3)ncc21 (centres unmarked) [Compound 8107] |  | most effective
